Measured values published in ChEMBL document CHEMBL1146879, “Novel benzimidazole-based MCH R1 antagonists” (Bioorg Med Chem Lett, 2006).
pIC50: −log10 of the molar value.

Legend:
[1] = biological target: Melanin-concentrating hormone receptor 1 (Homo sapiens, UniProt Q99705); assay: Antagonist activity against MCH1R expressed in CHO cells assessed as inhibition of MCH-induced EC80 […] response by luciferase reporter gene assay; assay type: functional, cell-based
[2] = Bioavailability in rat at 3 mg/kg, iv and 5 to 10 mg/kg, po; assay type: ADME, organism-based; settings: in vivo
[3] = Ratio of drug level in brain against plasma in mouse; assay type: ADME, organism-based; settings: brain and plasma, read-out: BPR
Mus musculus [4] = assay: Decrease in body weight of AKR/J DIO mouse relative to control after 15 days at 0.3 mg/kg, po; assay type: functional; set-up: scale not given: the % may be the effect or the level left
Mus musculus [5] = assay: Decrease in body weight of AKR/J DIO mouse relative to control after 15 days at 1 mg/kg, po; assay type: functional; set-up: scale not given: the % may be the effect or the level left
Mus musculus [6] = assay: Decrease in body weight of AKR/J DIO mouse relative to control after 15 days at 3 mg/kg, po; assay type: functional; set-up: scale not given: the % may be the effect or the level left
Mus musculus [7] = assay: Decrease in body weight of AKR/J DIO mouse relative to control after 15 days at 10 mg/kg, po; assay type: functional; set-up: scale not given: the % may be the effect or the level left
[8] = Bioavailability in mouse at 1.6 mg/kg, iv and 5.2 mg/kg, po; assay type: ADME, organism-based; settings: in vivo
[9] = Half life in mouse; assay type: ADME, organism-based; settings: in vivo

Melanin-concentrating hormone receptor 1, sequence (Q99705 whole entry): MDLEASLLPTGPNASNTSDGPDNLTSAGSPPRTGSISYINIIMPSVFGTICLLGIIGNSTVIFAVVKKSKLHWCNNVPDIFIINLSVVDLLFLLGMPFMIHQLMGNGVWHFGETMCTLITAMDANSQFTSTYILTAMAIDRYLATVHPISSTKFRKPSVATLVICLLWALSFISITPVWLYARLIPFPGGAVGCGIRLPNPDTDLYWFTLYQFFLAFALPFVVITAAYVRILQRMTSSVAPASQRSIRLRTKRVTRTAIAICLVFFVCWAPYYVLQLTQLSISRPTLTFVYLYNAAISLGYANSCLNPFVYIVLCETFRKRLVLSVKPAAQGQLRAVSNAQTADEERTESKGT

| pIC50 [1] | bioavailability [2] [%] | Compound | also measured |
| --- | --- | --- | --- |
| 8.00 | 16 | COc1ccc(-n2c(N(C)C)nc3cc(-n4cnc5cc(-c6ccc(Cl)cc6)sc5c4=O)ccc32)cc1 |  |
| 8.80 | ≥ 100 | Cc1nc2cc(-n3cnc4cc(-c5ccc(Cl)cc5)sc4c3=O)ccc2n1CCCO |  |
| 7.90 |  | COc1ccc(Cn2c(N(C)C)nc3cc(-n4cnc5cc(-c6ccc(Cl)cc6)sc5c4=O)ccc32)cc1 |  |
| 7.50 |  | COCCNc1nc2cc(-n3cnc4cc(-c5ccc(Cl)cc5)sc4c3=O)ccc2[nH]1 |  |
| 8.40 | 0 | CNc1nc2cc(-n3cnc4cc(-c5ccc(Cl)cc5)sc4c3=O)ccc2[nH]1 |  |
| 8.10 |  | CC(C)Nc1nc2cc(-n3cnc4cc(-c5ccc(Cl)cc5)sc4c3=O)ccc2[nH]1 |  |
| 8.50 |  | CCOc1ccc(-n2c(C)nc3cc(-n4cnc5cc(-c6ccc(Cl)cc6)sc5c4=O)ccc32)cc1 |  |
| 8.60 | 4 | CN(C)c1nc2cc(-n3cnc4cc(-c5ccc(Cl)cc5)sc4c3=O)ccc2[nH]1 |  |
| 7.70 |  | Cc1ccc(-n2c(C)nc3cc(-n4cnc5cc(-c6ccc(Cl)cc6)sc5c4=O)ccc32)cc1 |  |
| 8.20 | ≥ 100 | Cn1c(N2CCCC2)nc2ccc(-n3cnc4cc(-c5ccc(Cl)cc5)sc4c3=O)cc21 |  |
| 8.30 |  | Cc1nc2cc(-n3cnc4cc(-c5ccc(Cl)cc5)sc4c3=O)ccc2n1-c1ccc(N(C)C)cc1 |  |
| 8.30 | 3 | COc1ccc(-n2c(C)nc3cc(-n4cnc5cc(-c6ccc(Cl)cc6)sc5c4=O)ccc32)cc1 |  |
| 8.20 | 0 | Cc1nc2cc(-n3cnc4cc(-c5ccc(Cl)cc5)sc4c3=O)ccc2n1C1CCCCC1 |  |
| 8.30 | 40 | COCCCn1c(C)nc2cc(-n3cnc4cc(-c5ccc(Cl)cc5)sc4c3=O)ccc21 |  |
| 8.10 |  | Cc1nc2cc(-n3cnc4cc(-c5ccc(Cl)cc5)sc4c3=O)ccc2n1-c1ccc(OC(C)C)cc1 |  |
| 8.80 | ≥ 100 | CN(C)c1nc2ccc(-n3cnc4cc(-c5ccc(Cl)cc5)sc4c3=O)cc2n1C | Kp [3]: 2.6; Activity (Mus musculus [4]): -1.6%; Activity (Mus musculus [5]): -2.1%; Activity (Mus musculus [6]): -5.1%; Activity (Mus musculus [7]): -10%; bioavailability [8]: > 90%; half-life [9]: 6 h |
| 8.50 | 76 | O=c1c2sc(-c3ccc(Cl)cc3)cc2ncn1-c1ccc2[nH]c(N3CCCC3)nc2c1 |  |
| 7.80 |  | O=c1c2sc(-c3ccc(Cl)cc3)cc2ncn1-c1ccc2[nH]c(NC3CC3)nc2c1 |  |

| pIC50 [1] | bioavailability [2] [%] | Compound | also measured |
| --- | --- | --- | --- |
| 8.00 | 59 | CN(C)c1nc2cc(-n3cnc4cc(-c5ccc(Cl)cc5)sc4c3=O)ccc2n1CCO |  |
| 7.00 |  | CN1CCN(c2nc3cc(-n4cnc5cc(-c6ccc(Cl)cc6)sc5c4=O)ccc3[nH]2)CC1 |  |
| 7.90 | 55 | CN(C)c1nc2ccc(-n3cnc4cc(-c5ccc(Cl)cc5)sc4c3=O)cc2n1CCO |  |
| 8.30 | 0 | CN(CCN1CCCC1)c1nc2cc(-n3cnc4cc(-c5ccc(Cl)cc5)sc4c3=O)ccc2[nH]1 |  |
| 8.30 | 21 | CCCn1c(N(C)C)nc2ccc(-n3cnc4cc(-c5ccc(Cl)cc5)sc4c3=O)cc21 |  |
| 8.20 | 24 | Cc1nc2cc(-n3cnc4cc(-c5ccc(Cl)cc5)sc4c3=O)ccc2n1CCN1CCOCC1 |  |
| 8.70 | 31 | Cc1nc2cc(-n3cnc4cc(-c5ccc(Cl)cc5)sc4c3=O)ccc2n1CCN1CCCC1 |  |
| 8.20 |  | CN(C)c1nc2cc(-n3cnc4cc(-c5ccc(Cl)cc5)sc4c3=O)ccc2n1C |  |
| 8.20 | 0 | O=c1c2sc(-c3ccc(Cl)cc3)cc2ncn1-c1ccc2[nH]c(NCCN3CCCC3)nc2c1 |  |
| 8.30 | 30 | CCCn1c(N(C)C)nc2cc(-n3cnc4cc(-c5ccc(Cl)cc5)sc4c3=O)ccc21 |  |
| 7.60 |  | Cn1c(N2CCCC2)nc2cc(-n3cnc4cc(-c5ccc(Cl)cc5)sc4c3=O)ccc21 |  |
| 7.60 |  | Cc1nc2cc(-n3cnc4cc(-c5ccc(Cl)cc5)sc4c3=O)ccc2[nH]1 |  |
| 5.60 |  | COc1ccc(Cn2c(N(C)C)nc3ccc(-n4cnc5cc(-c6ccc(Cl)cc6)sc5c4=O)cc32)cc1 |  |
| 7.50 |  | Cc1nc2cc(-n3cnc4cc(-c5ccc(Cl)cc5)sc4c3=O)ccc2n1-c1ccccc1 |  |
| 8.30 | 31 | O=c1c2sc(-c3ccc(Cl)cc3)cc2ncn1-c1ccc2[nH]c(N3CCCCC3)nc2c1 |  |
| 7.80 |  | O=c1c2sc(-c3ccc(Cl)cc3)cc2ncn1-c1ccc2[nH]c(N3CCOCC3)nc2c1 |  |
| 7.50 |  | Nc1nc2cc(-n3cnc4cc(-c5ccc(Cl)cc5)sc4c3=O)ccc2[nH]1 |  |
